This is an account of results in patent US6979686B1, “Substituted pyrazoles as p38 kinase inhibitors” (Pharmacia Corporation, priority 2001, dated 2005).

In the first experiment the target is T1, human p38 kinase alpha (Homo sapiens, UniProt Q16539).
T1 construct: GST (N, cleaved yes); made in house; host or cells: E. coli DH10B
T1 sequence (Q16539 whole entry): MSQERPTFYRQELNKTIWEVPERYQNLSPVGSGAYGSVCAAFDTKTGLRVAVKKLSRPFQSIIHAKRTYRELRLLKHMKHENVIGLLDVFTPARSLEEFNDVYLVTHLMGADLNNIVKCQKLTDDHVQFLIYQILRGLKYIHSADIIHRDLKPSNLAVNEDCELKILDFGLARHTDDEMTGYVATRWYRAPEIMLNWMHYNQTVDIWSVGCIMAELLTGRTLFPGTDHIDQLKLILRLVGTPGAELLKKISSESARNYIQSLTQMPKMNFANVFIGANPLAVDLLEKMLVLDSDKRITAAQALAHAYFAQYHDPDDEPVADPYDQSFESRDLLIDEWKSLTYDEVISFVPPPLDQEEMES
Briefly: p38 kinase in vitro assay, phosphorylation of biotinylated PHAS-I with 32P-ATP. The format is biochemical. As to conditions: @ 1.0 uM.
Regarding `CCOC(=O)NCCCc1[nH]nc(-c2ccc(F)cc2)c1-c1ccncc1` [Example B-1231], the “P38 alpha kinase % inhib @ conc.” value is reported as 94.0% @.

As for `O=C(NCCCc1[nH]nc(-c2ccc(F)cc2)c1-c1ccncc1)[C@H]1CCCN1` [Example B-1233], the “P38 alpha kinase % inhib @ conc.” value is listed as 85.0% @.

For the molecule `Cc1ccc(C(=O)NCCc2[nH]nc(-c3ccc(F)cc3)c2-c2ccncc2)cc1` [Example B-1002], the “P38 alpha kinase % inhib @ conc. (uM)” value was 70.0% @.

Consider `O=C(NCCCc1[nH]nc(-c2ccc(F)cc2)c1-c1ccncc1)c1ccc(I)cc1` [Example B-1168], for which the “P38 alpha kinase % inhib @ conc. (uM)” value is recorded as 66.0% @.

For the molecule `O=S(=O)(NCCCc1[nH]nc(-c2ccc(F)cc2)c1-c1ccncc1)c1ccc(F)cc1F` [Example B-1195], the “P38 alpha kinase % inhib @ conc. (uM)” value was 52.0% @.

The experiment is the same for the next values; noted with them: @ 1.0 uM; read-out: P38 alpha kinase % inhib @ conc.
`CCCCC(=O)NCc1[nH]nc(-c2ccc(F)cc2)c1-c1ccncc1` [Example B-0014]: the inhibition at 1 µM stood at 79%.

The experiment is the same for the next values; noted with them: @ 10.0 uM.
For `Cc1c(-c2ccncc2)c(-c2ccc(F)cc2)nn1CC(=O)Nc1ccccc1C(=O)NC(C)c1ccccc1` (centres unmarked) [Example B-2456], the “P38 alpha kinase IC50, uM or % inhib @ conc. (uM): % inhib” value (“P38 alpha kinase IC50 … % inhib” for short) was determined as 86.0% @.

Regarding `Cc1c(-c2ccncc2)c(-c2ccc(F)cc2)nn1CC(=O)NC1CCCCC1` [Example B-2347], the “P38 alpha kinase % inhib @ conc.” value is reported as 49.0% @.

As to `Cc1c(-c2ccncc2)c(-c2ccc(F)cc2)nn1CC(=O)NC1Cc2ccccc2C1` [Example B-2321], the “P38 alpha kinase % inhib @ conc.” value turned out to be 69.0% @.

Consider `Cc1c(-c2ccncc2)c(-c2ccc(F)cc2)nn1CC(=O)Nc1ccccc1C(=O)OC(C)C` [Example B-2454], for which the “P38 alpha kinase IC50 … % inhib” value came out at 88.0% @.

Regarding `Cc1c(-c2ccncc2)c(-c2ccc(F)cc2)nn1CC(=O)NC1CCSc2ccccc21` (centres unmarked) [Example B-2348], the “P38 alpha kinase % inhib @ conc.” value was 76.0% @.

Consider `Cc1c(-c2ccncc2)c(-c2ccc(F)cc2)nn1CC(=O)N1CCSC1` [Example B-2383], for which the “P38 alpha kinase % inhib @ conc.” value was found to be 63.0% @.

Turning to `CCN1CCN(C(=O)Cn2nc(-c3ccc(F)cc3)c(-c3ccncc3)c2C)CC1` [Example B-2368], the “P38 alpha kinase % inhib @ conc.” value is 65.0% @.

Turning to `Cc1c(-c2ccncc2)c(-c2ccc(F)cc2)nn1CC(=O)Nc1cccc(F)c1` [Example B-2429], the “P38 alpha kinase IC50 … % inhib” value turned out to be 92.0% @.

Staying with this experiment, now noted: in vitro P38-alpha kinase inhibition; read-out: P38 alpha kinase IC50.
In the case of `COc1ccc(NC(=O)N[C@H](C)c2[nH]nc(-c3ccc(F)cc3)c2-c2ccncc2)c(OC)c1` [Example B-0422], the concentration for half-maximal inhibition (IC50) is < 100 nM.

As for `CC(NS(=O)(=O)C(C)C)c1[nH]nc(-c2ccc(F)cc2)c1-c1ccncc1` (centres unmarked) [Example B-0564], the half-maximal inhibitory concentration (IC50) amounted to 820 nM.

For the molecule `O=S(=O)(NC(Cc1ccccc1)c1[nH]nc(-c2ccc(F)cc2)c1-c1ccncc1)c1ccc(F)cc1` (centres unmarked) [Example B-0707], the IC50 came to 1700 nM.

With `COc1ccc(CC(=O)NC(Cc2ccccc2)c2[nH]nc(-c3ccc(F)cc3)c2-c2ccncc2)cc1` (centres unmarked) [Example B-0848], the 50% inhibitory concentration (IC50) turned out to be 1560 nM.

`O=S(=O)(NC(Cc1ccccc1)c1[nH]nc(-c2ccc(F)cc2)c1-c1ccncc1)c1ccc(F)cc1F` (centres unmarked) [Example B-0757]: the half-inhibitory concentration (IC50) is 540 nM.

As for `Cc1cccc(S(=O)(=O)NC(C)c2[nH]nc(-c3ccc(F)cc3)c2-c2ccncc2)c1` (centres unmarked) [Example B-0638], the IC50 is 250 nM.

`O=C(NCCc1[nH]nc(-c2ccc(F)cc2)c1-c1ccncc1)c1cccc(F)c1` [Example B-1145]: the IC50 was found to be 1070 nM.

As to `CC(NS(=O)(=O)c1ccccc1Br)c1[nH]nc(-c2ccc(F)cc2)c1-c1ccncc1` (centres unmarked) [Example B-0631], the half-inhibitory concentration (IC50) worked out at 65 nM.

Take `Cc1ccc(S(=O)(=O)NC(Cc2ccccc2)c2[nH]nc(-c3ccc(F)cc3)c2-c2ccncc2)cc1` (centres unmarked) [Example B-0766]: the 50% inhibitory concentration (IC50) is 950 nM.

In the case of `Cc1noc(C)c1C(=O)NC(C)c1[nH]nc(-c2ccc(F)cc2)c1-c1ccncc1` (centres unmarked) [Example B-0706], the IC50 worked out at 440 nM.

With `CC(NC(=O)C1CCCN1)c1[nH]nc(-c2ccc(F)cc2)c1-c1ccncc1` (centres unmarked) [Example B-0605], the half-maximal inhibitory concentration (IC50) worked out at 180 nM.

With `O=C(NC(Cc1ccccc1)c1[nH]nc(-c2ccc(F)cc2)c1-c1ccncc1)c1ccncc1` (centres unmarked) [Example B-0822], the IC50 was found to be 1330 nM.

As for `O=C(NC(Cc1ccccc1)c1[nH]nc(-c2ccc(F)cc2)c1-c1ccncc1)c1cnc2ccccc2n1` (centres unmarked) [Example B-0828], the concentration for half-maximal inhibition (IC50) came to 7900 nM.

Take `COc1ccc(NC(=O)NC(Cc2ccccc2)c2[nH]nc(-c3ccc(F)cc3)c2-c2ccncc2)c(OC)c1` (centres unmarked) [Example B-0744]: the IC50 was 23000 nM.

In the case of `O=C(NCCc1[nH]nc(-c2ccc(F)cc2)c1-c1ccncc1)c1c(F)cccc1C(F)(F)F` [Example B-1137], the 50% inhibitory concentration (IC50) is 38 nM.

For the molecule `Cc1cccc(Cl)c1S(=O)(=O)NCCc1[nH]nc(-c2ccc(F)cc2)c1-c1ccncc1` [Example B-1095], the IC50 was < 100 nM.

Take `CCCNC(=O)NC(Cc1ccccc1)c1[nH]nc(-c2ccc(F)cc2)c1-c1ccncc1` (centres unmarked) [Example B-0735]: the IC50 came to 1000 nM.

The same experiment, now with this note: in vitro P38-alpha kinase; read-out: P38 alpha kinase IC50.
Consider `Cc1c(-c2ccncc2)c(-c2ccc(F)cc2)nn1CC(=O)NCC(=O)OC(C)(C)C` [Example B-2309], for which the IC50 came to 290 nM.

Consider `CC(C)(C)C(=O)N1CCC(c2[nH]nc(-c3ccc(F)cc3)c2-c2ccncc2)CC1` [Example B-1421], for which the IC50 turned out to be 14 nM.

For `O=C(c1ccc(Cl)cc1Cl)N1CCC(c2[nH]nc(-c3ccc(F)cc3)c2-c2ccncc2)CC1` [Example B-1417], the 50% inhibitory concentration (IC50) amounted to 69 nM.

With `CCC(=O)N1CCC(c2[nH]nc(-c3ccc(F)cc3)c2-c2ccncc2)CC1` [Example B-1420], the concentration for half-maximal inhibition (IC50) is < 100 nM.

For `Cc1c(-c2ccncc2)c(-c2ccc(F)cc2)nn1CC(=O)NCCCCCCN(C)C` [Example B-2287], the IC50 worked out at 2560 nM.

For `O=C(NCCCc1[nH]nc(-c2ccc(F)cc2)c1-c1ccncc1)c1c(Cl)cccc1Cl` [Example B-1348], the half-inhibitory concentration (IC50) is 9 nM.

In the case of `COc1ccc2[nH]cc(CCNC(=O)Cn3nc(-c4ccc(F)cc4)c(-c4ccncc4)c3C)c2c1` [Example B-2296], the concentration for half-maximal inhibition (IC50) was 17300 nM.

For the molecule `O=S(=O)(NCCCc1[nH]nc(-c2ccc(F)cc2)c1-c1ccncc1)c1ccc(F)cc1Cl` [Example B-1254], the 50% inhibitory concentration (IC50) is 160 nM.

On to `N#Cc1cccc(C(=O)N2CCC(c3[nH]nc(-c4ccc(F)cc4)c3-c3ccncc3)CC2)c1` [Example B-1396], for which the half-maximal inhibitory concentration (IC50) stood at 1550 nM.

Regarding `O=S(=O)(NCCCc1[nH]nc(-c2ccc(F)cc2)c1-c1ccncc1)c1cc(Cl)ccc1Cl` [Example B-1243], the IC50 was determined as 40 nM.

For the molecule `O=C(NCCCc1[nH]nc(-c2ccc(F)cc2)c1-c1ccncc1)c1ccc(C(F)(F)F)cc1` [Example B-1356], the IC50 came to 59 nM.

With `Cc1c(-c2ccncc2)c(-c2ccc(F)cc2)nn1CC(=O)NCC1CC1` [Example B-2276], the half-maximal inhibitory concentration (IC50) came out at 11500 nM.

With `O=C(NCCCc1[nH]nc(-c2ccc(F)cc2)c1-c1ccncc1)c1cccc(F)c1` [Example B-1346], the 50% inhibitory concentration (IC50) was 43 nM.

Consider `Cc1c(-c2ccncc2)c(-c2ccc(F)cc2)nn1CC(=O)NCCc1cccnc1` [Example B-2291], for which the IC50 worked out at 19 nM.

On to `CCCCNC(=O)Cn1nc(-c2ccc(F)cc2)c(-c2ccncc2)c1C` [Example B-2293], for which the IC50 worked out at 2110 nM.

The experiment is the same for the next values; noted with them: read-out: P38 alpha kinase IC50.
As for `CN(C)[C@H]1CC[C@@H](c2[nH]nc(-c3ccc(C(F)(F)F)cc3)c2-c2ccncc2)CC1` [Example C-102, 5-cis-(4-N,N-DIMETHYLAMINOCYCLOHEXYL)-4-(4-PYRIDYL)-3-[4-(TRIFLUOROMETHYL)PHENYL]PYRAZOLE], the IC50 was found to be 290 nM.
